Test results taken from patent publication US20260297080A1, “BICYCLIC COMPOUNDS AS CDK INHIBITORS” (BeOne Medicines I GmbH, priority 2022, published 2026).

Tests used:
CDK1/Cyclin B1 = CDK1/Cyclin B1 (Homo sapiens, UniProt P06493); assay: CDK1/Cyclin B1 Biochemical Assay (TR-FRET), 0.015 mM ATP; conditions: 0.15 μM Rb (Ser780)-biotin substrate, pH7.0, 60 min preincubation, 120 min reaction, room temperature
In short: (§1)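 Phosphorylation of a biotin-tagged Rb Ser780 peptide (0.15 μM) is measured by time-resolved FRET between a europium-labelled phospho-specific antibody and streptavidin-XL665. Compound (0–10 μM) sits with enzyme 60 min first; the kinase reaction then proceeds 120 min at room temperature, pH 7.0.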

CDK2/Cyclin E1 = CDK2/Cyclin E1 (Homo sapiens, UniProt P24941); assay: CDK2/Cyclin E1 Biochemical Assay (TR-FRET), 0.060 mM ATP; conditions: 0.15 μM Rb (Ser780)-biotin substrate, pH7.0, 60 min preincubation, 120 min reaction, room temperature
In short: as §1

Sequence of CDK1/Cyclin B1 (P06493 whole entry): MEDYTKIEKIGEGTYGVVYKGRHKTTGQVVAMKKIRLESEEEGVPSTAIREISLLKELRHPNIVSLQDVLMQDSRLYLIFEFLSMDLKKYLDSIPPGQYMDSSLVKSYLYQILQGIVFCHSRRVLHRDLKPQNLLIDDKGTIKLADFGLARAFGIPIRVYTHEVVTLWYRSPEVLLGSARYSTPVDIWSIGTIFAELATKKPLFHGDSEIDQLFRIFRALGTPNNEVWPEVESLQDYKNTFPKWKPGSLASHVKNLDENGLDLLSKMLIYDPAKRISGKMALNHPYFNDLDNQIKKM
Sequence of CDK1/Cyclin B1 (P14635 whole entry partner): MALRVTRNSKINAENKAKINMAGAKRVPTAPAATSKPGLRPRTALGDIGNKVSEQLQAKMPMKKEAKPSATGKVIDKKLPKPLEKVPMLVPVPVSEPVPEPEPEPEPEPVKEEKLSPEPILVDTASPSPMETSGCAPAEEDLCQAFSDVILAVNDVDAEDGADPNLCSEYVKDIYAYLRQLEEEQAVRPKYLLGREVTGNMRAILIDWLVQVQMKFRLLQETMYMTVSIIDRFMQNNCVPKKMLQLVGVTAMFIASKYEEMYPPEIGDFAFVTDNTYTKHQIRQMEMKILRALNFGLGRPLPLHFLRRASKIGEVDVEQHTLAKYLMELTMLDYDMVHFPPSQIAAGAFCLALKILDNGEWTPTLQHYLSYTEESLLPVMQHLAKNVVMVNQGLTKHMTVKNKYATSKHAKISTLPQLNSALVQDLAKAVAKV

IC50 (CDK1/Cyclin B1) [nM]	IC50 (CDK2/Cyclin E1) [nM]	Structure (SMILES)
95	2.9	CC(C)NC(=O)O[C@H]1CC[C@@H](c2cc(Nc3ccc4c(c3)C(C)NS4(=O)=O)n[nH]2)C1 (single isomer, unassigned) [Example 321a, cis-3-(3-((3-methyl-1,1-dioxido-2,3-dihydrobenzo[d]isothiazol-5-yl)amino)-1H-pyrazol-5-yl)cyclopentyl isopropylcarbamate]
15	0.6	CC(C)NC(=O)O[C@H]1CC[C@@H](c2cc(Nc3ccc4c(c3)C(C)NS4(=O)=O)n[nH]2)C1 (single isomer, unassigned) [Example 321b, cis-3-(3-((3-methyl-1,1-dioxido-2,3-dihydrobenzo[d]isothiazol-5-yl)amino)-1H-pyrazol-5-yl)cyclopentyl isopropylcarbamate]
26	1.3	CC(C)NC(=O)O[C@H]1CC[C@@H](c2cc(Nc3ccc4c(c3)C(C)NS4(=O)=O)n[nH]2)C1 (single isomer, unassigned) [Example 321c, cis-3-(3-((3-methyl-1,1-dioxido-2,3-dihydrobenzo[d]isothiazol-5-yl)amino)-1H-pyrazol-5-yl)cyclopentyl isopropylcarbamate]
5.4	0.6	CC(C)NC(=O)O[C@H]1CC[C@@H](c2cc(Nc3ccc4c(c3)C(C)NS4(=O)=O)n[nH]2)C1 (single isomer, unassigned) [Example 321d, cis-3-(3-((3-methyl-1,1-dioxido-2,3-dihydrobenzo[d]isothiazol-5-yl)amino)-1H-pyrazol-5-yl)cyclopentyl isopropylcarbamate]
17	1.1	CC1NS(=O)(=O)c2ccc(Nc3cc([C@@H]4CC[C@H](OC(=O)NC5(C)CC5)C4)[nH]n3)cc21 (single isomer, unassigned) [Example 322a, cis-3-(3-((3-methyl-1,1-dioxido-2,3-dihydrobenzo[d]isothiazol-5-yl)amino)-1H-pyrazol-5-yl)cyclopentyl(1-methylcyclopropyl)carbamate]
3.2	0.6	CC1NS(=O)(=O)c2ccc(Nc3cc([C@@H]4CC[C@H](OC(=O)NC5(C)CC5)C4)[nH]n3)cc21 (single isomer, unassigned) [Example 322b, cis-3-(3-((3-methyl-1,1-dioxido-2,3-dihydrobenzo[d]isothiazol-5-yl)amino)-1H-pyrazol-5-yl)cyclopentyl(1-methylcyclopropyl)carbamate]
29	1.3	CC1NS(=O)(=O)c2ccc(Nc3cc([C@@H]4CC[C@H](OC(=O)NC5(C)CC5)C4)[nH]n3)cc21 (single isomer, unassigned) [Example 322c, cis-3-(3-((3-methyl-1,1-dioxido-2,3-dihydrobenzo[d]isothiazol-5-yl)amino)-1H-pyrazol-5-yl)cyclopentyl(1-methylcyclopropyl)carbamate]
5.6	0.7	CC1NS(=O)(=O)c2ccc(Nc3cc([C@@H]4CC[C@H](OC(=O)NC5(C)CC5)C4)[nH]n3)cc21 (single isomer, unassigned) [Example 322d, cis-3-(3-((3-methyl-1,1-dioxido-2,3-dihydrobenzo[d]isothiazol-5-yl)amino)-1H-pyrazol-5-yl)cyclopentyl(1-methylcyclopropyl)carbamate]
30	6.7	CC[C@H](C)NC(=O)O[C@H]1CC[C@@H](c2cc(Nc3ccc4c(c3)CS(=O)(=O)N4)n[nH]2)C1 (single isomer, unassigned) [Example 323a]
17	6.2	CC[C@H](C)NC(=O)O[C@H]1CC[C@@H](c2cc(Nc3ccc4c(c3)CS(=O)(=O)N4)n[nH]2)C1 (single isomer, unassigned) [Example 323b]
23	1.6	CN1c2ccc(Nc3cc([C@@H]4CC[C@H](OC(=O)NC(C)(C)CO)C4)[nH]n3)cc2CS1(=O)=O (single isomer, unassigned) [Example 325a, cis-3-(3-((1-methyl-2,2-dioxido-1,3-dihydrobenzo[c]isothiazol-5-yl)amino)-1H-pyrazol-5-yl)cyclopentyl(1-hydroxy-2-methylpropan-2-yl)carbamate]
71	2.3	CN1c2ccc(Nc3cc([C@@H]4CC[C@H](OC(=O)NC(C)(C)CO)C4)[nH]n3)cc2CS1(=O)=O (single isomer, unassigned) [Example 325b, cis-3-(3-((1-methyl-2,2-dioxido-1,3-dihydrobenzo[c]isothiazol-5-yl)amino)-1H-pyrazol-5-yl)cyclopentyl(1-hydroxy-2-methylpropan-2-yl)carbamate]
143	1.5	CN1c2ccc(Nc3cc([C@@H]4CC[C@H](OC(=O)NC(C)(C)CO)C4)[nH]n3)c(F)c2CS1(=O)=O (single isomer, unassigned) [Example 327a, cis-3-(3-((4-fluoro-1-methyl-2,2-dioxido-1,3-dihydrobenzo[c]isothiazol-5-yl)amino)-1H-pyrazol-5-yl)cyclopentyl(1-hydroxy-2-methylpropan-2-yl)carbamate]
56	1.7	CN1c2ccc(Nc3cc([C@@H]4CC[C@H](OC(=O)NC(C)(C)CO)C4)[nH]n3)c(F)c2CS1(=O)=O (single isomer, unassigned) [Example 327b, cis-3-(3-((4-fluoro-1-methyl-2,2-dioxido-1,3-dihydrobenzo[c]isothiazol-5-yl)amino)-1H-pyrazol-5-yl)cyclopentyl(1-hydroxy-2-methylpropan-2-yl)carbamate]
315	10	C[C@@H](CO)NC(=O)O[C@H]1CC[C@@H](c2cc(Nc3ccc4c(c3F)CNS4(=O)=O)n[nH]2)C1 (single isomer, unassigned) [Example 328a]
1970	31	C[C@@H](CO)NC(=O)O[C@H]1CC[C@@H](c2cc(Nc3ccc4c(c3F)CNS4(=O)=O)n[nH]2)C1 (single isomer, unassigned) [Example 328b]
367	1.9	CN1c2ccc(Nc3cc([C@@H]4CC[C@H](OC(=O)NC5(C)COC5)C4)[nH]n3)c(F)c2CS1(=O)=O (single isomer, unassigned) [Example 332a, cis-3-(3-((4-fluoro-1-methyl-2,2-dioxido-1,3-dihydrobenzo[c]isothiazol-5-yl)amino)-1H-pyrazol-5-yl)cyclopentyl(3-methyloxetan-3-yl)carbamate]
160	3.5	CN1c2ccc(Nc3cc([C@@H]4CC[C@H](OC(=O)NC5(C)COC5)C4)[nH]n3)c(F)c2CS1(=O)=O (single isomer, unassigned) [Example 332b, cis-3-(3-((4-fluoro-1-methyl-2,2-dioxido-1,3-dihydrobenzo[c]isothiazol-5-yl)amino)-1H-pyrazol-5-yl)cyclopentyl(3-methyloxetan-3-yl)carbamate]
131	1.8	CN1c2ccc(Nc3cc([C@@H]4CC[C@H](OC(=O)NC5(C)CCOC5)C4)[nH]n3)c(F)c2CS1(=O)=O (single isomer, unassigned) [Example 349a, cis-3-(3-((4-fluoro-1-methyl-2,2-dioxido-1,3-dihydrobenzo[c]isothiazol-5-yl)amino)-1H-pyrazol-5-yl)cyclopentyl(3-methyltetrahydrofuran-3-yl)carbamate]
88	1.2	CN1c2ccc(Nc3cc([C@@H]4CC[C@H](OC(=O)NC5(C)CCOC5)C4)[nH]n3)c(F)c2CS1(=O)=O (single isomer, unassigned) [Example 349b, cis-3-(3-((4-fluoro-1-methyl-2,2-dioxido-1,3-dihydrobenzo[c]isothiazol-5-yl)amino)-1H-pyrazol-5-yl)cyclopentyl(3-methyltetrahydrofuran-3-yl)carbamate]
78	1.9	CN1c2ccc(Nc3cc([C@@H]4CC[C@H](OC(=O)NC5(C)CCOC5)C4)[nH]n3)c(F)c2CS1(=O)=O (single isomer, unassigned) [Example 349c, cis-3-(3-((4-fluoro-1-methyl-2,2-dioxido-1,3-dihydrobenzo[c]isothiazol-5-yl)amino)-1H-pyrazol-5-yl)cyclopentyl(3-methyltetrahydrofuran-3-yl)carbamate]
152	1.4	CN1c2ccc(Nc3cc([C@@H]4CC[C@H](OC(=O)NC5(C)CCOC5)C4)[nH]n3)c(F)c2CS1(=O)=O (single isomer, unassigned) [Example 349d, cis-3-(3-((4-fluoro-1-methyl-2,2-dioxido-1,3-dihydrobenzo[c]isothiazol-5-yl)amino)-1H-pyrazol-5-yl)cyclopentyl(3-methyltetrahydrofuran-3-yl)carbamate]
365	14	CN1Cc2c(ccc(Nc3cc([C@@H]4CC[C@H](OC(=O)NC5(C)COC5)C4)[nH]n3)c2F)S1(=O)=O (single isomer, unassigned) [Example 352a, cis-3-(3-((4-fluoro-2-methyl-1,1-dioxido-2,3-dihydrobenzo[d]isothiazol-5-yl)amino)-1H-pyrazol-5-yl)cyclopentyl(3-methyloxetan-3-yl)carbamate]
651	7	CN1Cc2c(ccc(Nc3cc([C@@H]4CC[C@H](OC(=O)NC5(C)COC5)C4)[nH]n3)c2F)S1(=O)=O (single isomer, unassigned) [Example 352b, cis-3-(3-((4-fluoro-2-methyl-1,1-dioxido-2,3-dihydrobenzo[d]isothiazol-5-yl)amino)-1H-pyrazol-5-yl)cyclopentyl(3-methyloxetan-3-yl)carbamate]
